Measured values published in US10428041B2, “Pyridyl reverse sulfonamides for HBV treatment” (Novira Therapeutics, Inc., priority 2014, dated 2019).

Test system: HBV replication in HepG2-2.2.15 cells
Assay: Inhibition of HBV replication dot-blot assay
Type: cell-based
Conditions: Hepatitis B virus, 144 h, reduction in HBV DNA levels, six days
Procedure: Compounds active in the HBV assembly assay are tested for their activity and toxicity in cellular assay. In the first anti-viral assay, the ability of compounds to inhibit HBV replication in an HBV-producing hepatoma cell line using the dot-blot method is evaluated.
(§1) Briefly, confluent monolayers of HepG2-2.2.15 cells are incubated with complete medium containing various concentrations of a test compound. Three days later, the culture medium is replaced with fresh medium containing the appropriately diluted test compound. Six days following the initial administration of the test compound, the cell culture supernatant is collected, and cell lysis is performed. The samples are applied onto Nylos membranes and DNA is immobilized to the membrane by UV cross-linking. After pre-hybridization, the HBV probe is added and the hybridization is performed overnight. The membranes are exposed to the KODAK films; antiviral activity is calculated from the reduction in HBV DNA levels (EC50). The EC50 for antiviral activity is calculated from the dose response curves of active compounds. Assay performance over time is monitored by the use of the standard positive control compounds ETV, BAY 41-4109, and HAP-1.
Selected compounds are tested for their activity and toxicity in cellular assay. In the first anti-viral assay, the ability of compounds to inhibit HBV replication in an HBV-producing hepatoma cell line using the dot-blot method is evaluated.
as §1, with “Confluent monolayers” for “Briefly, confluent monolayers”, “lysis was” for “lysis is”

SMILES	EC50
O=C(Nc1ccc(F)c(Cl)c1)c1ccnc(NS(=O)(=O)CCc2ccccc2)c1 [Compound 21, N-(3-Chloro-4-fluorophenyl)-2-(2-phenylethylsulfonamido)isonicotinamide]	< 10 µM
O=C(Nc1ccc(F)c(Cl)c1)c1ccnc(NS(=O)(=O)CCC2CC2)c1 [Compound 23, N-(3-Chloro-4-fluorophenyl)-2-(2-cyclopropylethylsulfonamido)isonicotinamide]	< 10 µM
CS(=O)(=O)Nc1cc(C(=O)Nc2ccc(F)c(Cl)c2)ccn1 [Compound 35, N-(3-Chloro-4-fluorophenyl)-2-(methylsulfonamido)isonicotinamide]	< 10 µM
O=C(Nc1ccc(F)c(Cl)c1)c1ccnc(NS(=O)(=O)CC2CC2)c1 [Compound 36, N-(3-Chloro-4-fluorophenyl)-2-(cyclopropylmethylsulfonamido)isonicotinamide]	< 10 µM
